Values of other authors in patent US20230111210A1, “COCRYSTAL ANTIOXIDANTS OF PROTOCATECHUIC ACID WITH L-THEANINE FOR THE TREATMENT OF OXIDATIVE STRESS AND INFLAMMATORY CONDITIONS” (priority 2020, published 2023).
Values after ≈ are worked out from the molar mass of the structure shown.

Experiments:
[1] = not given; remark: listed apart in the source
[2] = tested on: rabbits; settings: rabbit, in vivo
[3] = tested on: Kainate receptors
[4] = tested on: NMDA (N-methyl-D-Aspartate) receptors
[5] = tested on: AMPA (α-amino-3-hydroxy-5-methyl-4-isoxazolepropionic acid) receptors
[6] = tested on: rats; settings: rat, in vivo

SMILES | solubility in water [mg/mL] | pKa [1] | oral LD50 [2] | affinity for Kainate receptors [3] | solubility in water (in words) | affinity for NMDA receptors [4] | affinity for AMPA receptors [5] | LD50 [6]
O=C(O)c1ccc(O)c(O)c1 [Protocatechuic acid, 3,4-dihydroxybenzoic acid] | 18.2 (≈ 118 mM) | 4.26 | greater than 3000 mg/kg | – | – | – | – | –
CCNC(=O)CC[C@H](N)C(=O)O [L-theanine, N-ethyl-L-glutamine] | – | 2.35 | – | micromolar affinities | soluble in water | micromolar affinities | micromolar affinities | greater than 5000 mg/kg
